Assay results published in patent US20220370486A1, “COMBINATION TREATMENT OF SYSTEMIC FUNGAL INFECTIONS” (The Board of Trustees of the University of Illinois, priority 2019, published 2022).
In brackets after ≈: the same amount, converted by molar mass. Where two headings read alike, the source gives them in different places.

Experiments:
yeast cells = assay: Antifungal activity after ergosterol pre-complexation of the sponge; format: cell-based; settings: sponge pre-complexed with ergosterol
From the text: Anderson, T. M. et al., Nat Chem Biol 2014, 10 (5), 400-6. […] Davis, S. A., et al., Nat Chem Biol 2015, 11 (7), 481-7. To test whether C2′epiAmB primarily kills cells via the same sterol sponge mechanism, the C2′epiAmB sponge was similarly pre-complexed with ergosterol. […] Thus, C2′epiAmB similarly kills yeast primarily via sterol binding, and, by extension, the new compounds targeted in this application are expected to have a similar barrier to fungal resistance that has been observed for the past 50+years with AmB.

Candida albicans SN250 = assay: MIC against Candida albicans SN250; format: cell-based
C. albicans 967374 = assay: Checkerboard broth microdilution (CLSI); format: cell-based; settings: isolate 967374; for MIC: single agent
Description: (§1) Isolates were tested against varying concentrations of amphotericin B and C2′epiAmB (range, 0.06 to 4 mg/L) and combined with fluconazole (range, 0.12 to 128 mg/L) or ketoconazole (range 0.008 to 8 mg/L) or voriconazole (range, 0.004 to 4 mg/L) using a checkerboard grid design following the Clinical and Laboratory Standards Institute (CLSI) broth microdilution method (M23Ed5).

F. solani SC 1047542 = assay: Checkerboard broth microdilution (CLSI); format: cell-based; settings: isolate 1047542; for MIC: Fusarium solani, single agent
Description: as §1

A. flavus SC 1085986 = assay: Checkerboard broth microdilution (CLSI); format: cell-based; settings: isolate 1085986; for MIC: Aspergillus flavus, single agent
Description: as §1

A. flavus ATCC 204304 = assay: Checkerboard broth microdilution (CLSI); format: cell-based; settings: isolate ATCC 204304; for MIC: Aspergillus flavus, ATCC204304, single agent
Description: as §1

[1] = system: C. parapsilosis ATCC 22019; assay: Checkerboard broth microdilution (CLSI); format: cell-based; settings: isolate ATCC 22019; for MIC: Lodderomyces parapsilosis, ATCC22019, single agent, read-out: MIC
Description: as §1

C. glabrata 1046695 = assay: Checkerboard broth microdilution (CLSI); format: cell-based; settings: isolate 1046695; for MIC: Nakaseomyces glabratus, single agent, read-out: MIC
Description: as §1

A. fumigatus 1077391 = assay: Checkerboard broth microdilution (CLSI); format: cell-based; settings: isolate 1077391; for MIC: Aspergillus fumigatus, single agent
Description: as §1

C. tropicalis 1046709 = assay: Checkerboard broth microdilution (CLSI); format: cell-based; settings: isolate 1046709; for MIC: Candida tropicalis, single agent
Description: as §1

C. krusei ATCC 6258 = assay: Checkerboard broth microdilution (CLSI); format: cell-based; settings: isolate ATCC 6258
Description: as §1

F. oxysporum SC 1087597 = assay: Checkerboard broth microdilution (CLSI); format: cell-based; settings: isolate 1087597; for MIC: Fusarium oxysporum, single agent
Description: as §1

[2] = system: A. fumigatus ATCC MYA-3626; assay: Checkerboard broth microdilution (CLSI); format: cell-based; settings: isolate ATCC MYA-3626; for MIC: single agent
Description: as §1

C. parapsilosis 1048737 = assay: Checkerboard broth microdilution (CLSI); format: cell-based; settings: isolate 1048737; for MIC: single agent
Description: as §1

C. krusei 975691 = assay: Checkerboard broth microdilution (CLSI); format: cell-based; settings: isolate 975691; for MIC: single agent
Description: as §1

C. auris 1081160 = assay: Checkerboard broth microdilution (CLSI); format: cell-based; settings: isolate 1081160; for MIC: Candidozyma auris, single agent, read-out: MIC
Description: as §1

[3] = UV-Vis and PCA based sterol sponge binding assay; settings: apparent KD, sterol sponge aggregates in vitro
From the text: However, an alternative method was developed for reproducible formation of homogenous AmB and C2′epiAmB sterol sponge aggregates in vitro. Using these preparations, a quantitative UV-Vis and Principle Component (PCA) based assay for determining the apparent Kis for the binding of AmB and C2′epiAmB to ergosterol and cholesterol (FIGS. 2A-2D) was developed.

[4] = Candida albicans, read-out: MIC
[5] = Pichia kudriavzevii, ATCC6258, single agent, read-out: MIC
[6] = Aspergillus fumigatus, read-out: MIC
[7] = Lodderomyces parapsilosis, read-out: MIC
[8] = Pichia kudriavzevii, read-out: MIC

C[C@@H]1[C@H](O)[C@@H](C)/C=C/C=C/C=C/C=C/C=C/C=C/C=C/[C@H](O[C@@H]2O[C@H](C)[C@@H](O)[C@H](N)[C@@H]2O)C[C@@H]2O[C@](O)(C[C@@H](O)C[C@@H](O)[C@H](O)CC[C@@H](O)C[C@@H](O)CC(=O)O[C@H]1C)C[C@H](O)[C@H]2C(=O)O [AmB, Amphotericin B]
change of potency upon ergosterol pre-complexation (yeast cells): same reduction in potency | MIC (Candida albicans SN250): 0.15 µM (≈ 0.139 µg/mL) | MIC (C. albicans 967374; [4]): 0.5 µg/mL | MIC (C. albicans 967374): 1 µg/mL | MIC when added 1 log2 unit lower of azoles' MIC (C. albicans 967374; with fluconazole): 0.5 mg/L | MIC when added 1 log2 unit lower of azoles' MIC (C. albicans 967374; with ketoconazole): 0.5 mg/L | MIC when added 1 log2 unit lower of azoles' MIC (C. albicans 967374; with voriconazole): 0.5 mg/L | MIC (F. solani SC 1047542): 2 µg/mL | MIC when added 1 log2 unit lower of azoles' MIC (F. solani SC 1047542; with ketoconazole): 0.06 mg/L | MIC when added 1 log2 unit lower of azoles' MIC (F. solani SC 1047542; with voriconazole): 2 mg/L | MIC (A. flavus SC 1085986): 2 µg/mL | MIC when added 1 log2 unit lower of azoles' MIC (A. flavus SC 1085986; with ketoconazole): 1 mg/L | MIC when added 1 log2 unit lower of azoles' MIC (A. flavus SC 1085986; with voriconazole): 2 mg/L | MIC (A. flavus ATCC 204304): 1 µg/mL | MIC when added 1 log2 unit lower of azoles' MIC (A. flavus ATCC 204304; with ketoconazole): 1 mg/L | MIC when added 1 log2 unit lower of azoles' MIC (A. flavus ATCC 204304; with voriconazole): 0.5 mg/L | MIC when added 1 log2 unit lower of azoles' MIC ([1]; with fluconazole): 0.25 mg/L | MIC when added 1 log2 unit lower of azoles' MIC ([1]; with ketoconazole): 0.25 mg/L | MIC when added 1 log2 unit lower of azoles' MIC ([1]; with voriconazole): 0.5 mg/L | MIC (C. glabrata 1046695): 0.5 µg/mL | MIC when added 1 log2 unit lower of azoles' MIC (C. glabrata 1046695; with fluconazole): 0.5 mg/L | MIC when added 1 log2 unit lower of azoles' MIC (C. glabrata 1046695; with ketoconazole): 0.06 mg/L | MIC when added 1 log2 unit lower of azoles' MIC (C. glabrata 1046695; with voriconazole): 0.5 mg/L | MIC (A. fumigatus 1077391): 1 µg/mL | MIC when added 1 log2 unit lower of azoles' MIC (A. fumigatus 1077391; with ketoconazole): 0.06 mg/L | MIC when added 1 log2 unit lower of azoles' MIC (A. fumigatus 1077391; with voriconazole): 1 mg/L | MIC (C. tropicalis 1046709): 0.5 µg/mL | MIC when added 1 log2 unit lower of azoles' MIC (C. tropicalis 1046709; with fluconazole): 0.25 mg/L | MIC when added 1 log2 unit lower of azoles' MIC (C. tropicalis 1046709; with ketoconazole): 0.5 mg/L | MIC when added 1 log2 unit lower of azoles' MIC (C. tropicalis 1046709; with voriconazole): 0.5 mg/L | MIC (C. krusei ATCC 6258; [5]): 0.5 µg/mL | MIC (C. krusei ATCC 6258; single agent): 1 µg/mL | MIC when added 1 log2 unit lower of azoles' MIC (C. krusei ATCC 6258; with fluconazole): 0.5 mg/L | MIC when added 1 log2 unit lower of azoles' MIC (C. krusei ATCC 6258; with ketoconazole): 0.5 mg/L | MIC when added 1 log2 unit lower of azoles' MIC (C. krusei ATCC 6258; with voriconazole): 0.5 mg/L | MIC (F. oxysporum SC 1087597): 2 µg/mL | MIC when added 1 log2 unit lower of azoles' MIC (F. oxysporum SC 1087597; with ketoconazole): 0.06 mg/L | MIC when added 1 log2 unit lower of azoles' MIC (F. oxysporum SC 1087597; with voriconazole): 2 mg/L | MIC [2, 6]: 1 µg/mL | MIC when added 1 log2 unit lower of azoles' MIC ([2]; with ketoconazole): 2 mg/L | MIC when added 1 log2 unit lower of azoles' MIC ([2]; with voriconazole): 1 mg/L | MIC (C. parapsilosis 1048737; [7]): 0.5 µg/mL | MIC when added 1 log2 unit lower of azoles' MIC (C. parapsilosis 1048737; with fluconazole): 0.25 mg/L | MIC when added 1 log2 unit lower of azoles' MIC (C. parapsilosis 1048737; with ketoconazole): 0.25 mg/L | MIC when added 1 log2 unit lower of azoles' MIC (C. parapsilosis 1048737; with voriconazole): 0.25 mg/L | MIC (C. krusei 975691; [8]): 1 µg/mL | MIC (C. krusei 975691): 0.5 µg/mL | MIC when added 1 log2 unit lower of azoles' MIC (C. krusei 975691; with fluconazole): 0.5 mg/L | MIC when added 1 log2 unit lower of azoles' MIC (C. krusei 975691; with ketoconazole): 0.5 mg/L | MIC when added 1 log2 unit lower of azoles' MIC (C. krusei 975691; with voriconazole): 0.5 mg/L | MIC (C. auris 1081160): 1 µg/mL | MIC when added 1 log2 unit lower of azoles' MIC (C. auris 1081160; with fluconazole): 0.06 mg/L | MIC when added 1 log2 unit lower of azoles' MIC (C. auris 1081160; with ketoconazole): 1 mg/L | MIC when added 1 log2 unit lower of azoles' MIC (C. auris 1081160; with voriconazole): 1 mg/L | Kd ([3]; read-out: KD,chol): 0.84 µM | Kd ([3]; read-out: KD,erg): 0.12 µM

CC(=O)N1CCN(c2ccc(OCC3COC(Cn4ccnc4)(c4ccc(Cl)cc4Cl)O3)cc2)CC1 (stereo not shown) [Ketoconazole, ketoconazole]
MIC (C. albicans 967374; [4]): 0.25 µg/mL | MIC (F. solani SC 1047542): > 8 µg/mL | MIC (A. flavus SC 1085986): 4 µg/mL | MIC (A. flavus ATCC 204304): 2 µg/mL | MIC [1]: 0.06 µg/mL | MIC (C. glabrata 1046695): 4 µg/mL | MIC (A. fumigatus 1077391): > 8 µg/mL | MIC (C. tropicalis 1046709): 0.12 µg/mL | MIC (C. krusei ATCC 6258; [5]): 0.25 µg/mL | MIC (F. oxysporum SC 1087597): > 8 µg/mL | MIC [2, 6]: 8 µg/mL | MIC [2]: >8 µg/mL | MIC (C. parapsilosis 1048737; [7]): 0.015 µg/mL | MIC (C. parapsilosis 1048737): 0.03 µg/mL | MIC (C. krusei 975691; [8]): 1 µg/mL | MIC (C. krusei 975691): 2 µg/mL | MIC (C. auris 1081160): 0.5 µg/mL

C[C@@H](c1ncncc1F)[C@](O)(Cn1cncn1)c1ccc(F)cc1F [Voriconazole, voriconazole]
MIC (C. albicans 967374; [4]): 0.25 µg/mL | MIC (F. solani SC 1047542): 4 µg/mL | MIC (A. flavus SC 1085986): 1 µg/mL | MIC (A. flavus ATCC 204304): 1 µg/mL | MIC [1]: 0.03 µg/mL | MIC (C. glabrata 1046695): 4 µg/mL | MIC (A. fumigatus 1077391): 2 µg/mL | MIC (C. tropicalis 1046709): 0.12 µg/mL | MIC (C. krusei ATCC 6258; [5]): 0.25 µg/mL | MIC (F. oxysporum SC 1087597): 4 µg/mL | MIC [2, 6]: 0.5 µg/mL | MIC (C. parapsilosis 1048737; [7]): 0.008 µg/mL | MIC (C. parapsilosis 1048737): 0.015 µg/mL | MIC (C. krusei 975691; [8]): 4 µg/mL | MIC (C. auris 1081160): 1 µg/mL
